Measured values from article PMC9599461, “Stereoselectivity in the Membrane Transport of Phenylethylamine Derivatives by Human Monoamine Transporters and Organic Cation Transporters 1, 2, and 3” (Biomolecules, 2022).
Several values for one entry are separate records, joined by “and”; a condition that tells them apart may be missing. Identical values can stand only once.

Legend:
SERT [1] = biological target: T1, SERT (Homo sapiens, UniProt P31645);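 note: uptake into HEK293 cells stably expressing human SERT over 2 min, enantiomers measured in cell lysate by chiral HPLC-MS/MS, normalized to total protein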
Procedure: (§1) All transport experiments were carried out in HEK293 cells stably overexpressing human MATs or OCTs. […] All cells were regularly cultivated in DMEM supplemented with 10% (v/v) FCS, penicillin (100 U/mL) and streptomycin (100 μg/mL)and kept in culture for no longer than 30 passages.
(§2) For the uptake experiments, 300,000 cells were plated in poly-D-lysine precoated 24-well plates 48 h ahead of the transport experiment. On the day of experiment, cells were initially washed once with 37 °C pre-warmed HBSS+ (Hanks buffered salt solution supplemented with 10 mM HEPES) and subsequently incubated with the substrates dissolved in pre-warmed HBSS+ for exactly two minutes. Incubation was stopped by adding ice-cold HBSS+ followed by two washing steps. After this, cells were lysed with 80% acetonitrile containing 10 ng/mL milnacipran as internal standard for high-performance liquid chromatography coupled to tandem mass spectrometry (HPLC-MS/MS) analysis. For every experiment, two additional wells per cell line were lysed using RIPA buffer for protein quantification. Total protein was quantified using the bicinchoninic acid assay [42]. This was later used for normalization of the uptake data.
(§3) Intracellularly accumulated test substances were quantified by HPLC-MS/MS analysis using a Shimadzu Nexera HPLC system with a SIL-30AC autosampler, a CTO-20AC column oven, a LC-30AD pump, and a CBM-20A controller (Shimadzu, Kyoto, Japan). […] CBH HPLC column (100 × 3 mm inner dimension with 5 μM particle size; Sigma-Aldrich, Darmstadt, Germany) with a corresponding 10 × 3 mm guard column. Reversed phased chromatography was carried out using an ammonium acetate (NH4Ac) buffered aqueous mobile phase with isopropyl alcohol (IPA) as organic solvent. […] The order of elution of the enantiomers was obtained from available reference literature [43] or by applying enantiopure reference compounds to the chiral HPLC.
(§4) Detection was performed with an API 4000 tandem mass spectrometer (AB SCIEX, Darmstadt, Germany) operating in multiple-reaction-monitoring mode. Quantification was performed using the Analyst 1.6.2 software (AB SCIEX, Darmstadt, Germany) and quantified by comparison to standard curves with known concentrations.
(§5) All uptake data were normalized to protein content to account for variation in the number of seeded sells. Transporter-mediated net uptake was calculated by subtracting uptake into empty vector-transfected control cells from uptake into transporter-transfected cells. […] Vmax refers to the maximum transport velocity and Km is defined as the substance concentration required to reach half of vmax. The intrinsic clearance Clint was calculated as the quotient of vmax over Km.

SERT [2] = biological target: T1, SERT; test: in vitro
Procedure: as §1, §2, §3, §4, §5

NET = NET (Homo sapiens, UniProt P23975); test: Stereoselective uptake into NET-overexpressing HEK293 cells;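 note: intracellular enantiomers quantified in cell lysates by chiral HPLC-MS/MS after a 2 min substrate incubation, with uptake normalized to total cellular protein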
[3] = system: OCT2 wild-type versus A270S variant; test: in vitro; conditions: human, Transporter selectivity, OCT2 wild-type versus A270S, 100 μM racemic substance, two minutes; given as for WT
Procedure: as §1, §2
(§6) Intracellularly accumulated test substances were quantified by HPLC-MS/MS analysis using a Shimadzu Nexera HPLC system with a SIL-30AC autosampler, a CTO-20AC column oven, a LC-30AD pump, and a CBM-20A controller (Shimadzu, Kyoto, Japan). Stereoselective chromatography was carried out on a [sequence] CBH HPLC column (100 × 3 mm inner dimension with 5 μM particle size; Sigma-Aldrich, Darmstadt, Germany) with a corresponding 10 × 3 mm guard column. Reversed phased chromatography was carried out using an ammonium acetate (NH4Ac) buffered aqueous mobile phase with isopropyl alcohol (IPA) as organic solvent. […] The order of elution of the enantiomers was obtained from available reference literature [43] or by applying enantiopure reference compounds to the chiral HPLC. […] However, in every other case where the order of elution was available, the (R)-enantiomer eluted first. Given the structural similarity of the investigated substances and the fact that separation was performed on the same column with almost identical mobile phases, we assume that this order of elution for our compound set is always the (R)- before the (S)-enantiomer.
as §4
(§7) All uptake data were normalized to protein content to account for variation in the number of seeded sells. Transporter-mediated net uptake was calculated by subtracting uptake into empty vector-transfected control cells from uptake into transporter-transfected cells. Kinetic parameters were then determined after non-linear regression following the Michaelis–Menten equation (v = vmax × [S]/(Km + [S])) using GraphPad Prism (Version 5.01 for Windows, GraphPad Software, La Jolla, CA, USA). Vmax refers to the maximum transport velocity and Km is defined as the substance concentration required to reach half of vmax. The intrinsic clearance Clint was calculated as the quotient of vmax over Km.
(§8) HEK293 cells stably overexpressing wild-type or mutant OCT2 were incubated with 100 μM racemic substance for two minutes.

OCT2 [4] = biological target: T2, OCT2 (Homo sapiens, UniProt O15244); test: Stereoselective uptake into OCT2 (wild-type)-overexpressing HEK293 cells; conditions: OCT2; for selectivity ratio at 2 min: human, ratio between enantiomers
T2 sequence (O15244 1-555 S270A): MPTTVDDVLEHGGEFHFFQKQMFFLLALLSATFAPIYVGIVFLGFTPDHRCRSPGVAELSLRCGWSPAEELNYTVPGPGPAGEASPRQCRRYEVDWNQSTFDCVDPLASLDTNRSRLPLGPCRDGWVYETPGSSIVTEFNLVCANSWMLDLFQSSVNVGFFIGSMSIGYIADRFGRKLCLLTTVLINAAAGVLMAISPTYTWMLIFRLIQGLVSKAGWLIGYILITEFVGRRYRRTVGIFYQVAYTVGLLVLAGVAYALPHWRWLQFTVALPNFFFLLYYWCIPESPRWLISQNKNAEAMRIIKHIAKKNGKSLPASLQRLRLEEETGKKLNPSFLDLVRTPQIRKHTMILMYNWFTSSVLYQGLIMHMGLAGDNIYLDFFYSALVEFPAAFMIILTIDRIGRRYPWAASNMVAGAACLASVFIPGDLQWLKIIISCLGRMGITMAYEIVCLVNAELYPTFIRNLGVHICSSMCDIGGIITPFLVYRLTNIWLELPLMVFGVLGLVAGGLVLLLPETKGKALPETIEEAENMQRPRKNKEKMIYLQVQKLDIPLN

SERT [5] = biological target: T1, SERT; test: Stereoselective uptake into SERT-overexpressing HEK293 cells;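 note: uptake into HEK293 cells stably expressing human SERT over 2 min, enantiomers measured in cell lysate by chiral HPLC-MS/MS, normalized to total protein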
Procedure: as §1, §2, §3, §4, §5

OCT1 = biological target: T3, OCT1 (Homo sapiens, UniProt O15245); test: Stereoselective uptake into OCT1-overexpressing HEK293 cells; conditions: for selectivity ratio at 2 min: human;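 for all read-outs here: enantiomers quantified inside cells by chiral HPLC-MS/MS, uptake normalized to total protein from bicinchoninic acid assay, substrates applied in HBSS+ buffer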
T3 sequence (O15245 1-554): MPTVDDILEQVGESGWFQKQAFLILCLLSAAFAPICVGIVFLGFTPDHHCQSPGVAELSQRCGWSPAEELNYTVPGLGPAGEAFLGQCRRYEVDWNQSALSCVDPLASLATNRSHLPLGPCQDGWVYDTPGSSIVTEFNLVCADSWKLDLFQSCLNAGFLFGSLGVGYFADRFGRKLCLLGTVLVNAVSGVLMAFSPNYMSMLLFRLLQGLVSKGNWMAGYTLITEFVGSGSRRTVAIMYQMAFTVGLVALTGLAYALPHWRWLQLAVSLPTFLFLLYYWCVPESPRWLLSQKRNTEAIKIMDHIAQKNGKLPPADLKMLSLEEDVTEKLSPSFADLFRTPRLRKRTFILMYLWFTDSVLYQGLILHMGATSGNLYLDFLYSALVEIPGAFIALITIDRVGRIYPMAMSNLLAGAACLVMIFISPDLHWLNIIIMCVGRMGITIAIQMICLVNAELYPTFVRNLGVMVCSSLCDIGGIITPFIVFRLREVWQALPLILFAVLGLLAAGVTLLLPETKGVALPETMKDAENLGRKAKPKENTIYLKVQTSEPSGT

DAT = DAT (Homo sapiens, UniProt Q01959); test: Stereoselective uptake into DAT-overexpressing HEK293 cells;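 note: intracellular accumulation measured by chiral HPLC-MS/MS in stably transfected HEK293 cells, normalized to total protein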
Procedure: as §1, §2
(§9) Intracellularly accumulated test substances were quantified by HPLC-MS/MS analysis using a Shimadzu Nexera HPLC system with a SIL-30AC autosampler, a CTO-20AC column oven, a LC-30AD pump, and a CBM-20A controller (Shimadzu, Kyoto, Japan). Stereoselective chromatography was carried out on a [sequence] CBH HPLC column (100 × 3 mm inner dimension with 5 μM particle size; Sigma-Aldrich, Darmstadt, Germany) with a corresponding 10 × 3 mm guard column. Reversed phased chromatography was carried out using an ammonium acetate (NH4Ac) buffered aqueous mobile phase with isopropyl alcohol (IPA) as organic solvent. […] The order of elution of the enantiomers was obtained from available reference literature [43] or by applying enantiopure reference compounds to the chiral HPLC. […] Given the structural similarity of the investigated substances and the fact that separation was performed on the same column with almost identical mobile phases, we assume that this order of elution for our compound set is always the (R)- before the (S)-enantiomer.
as §4, §7

OCT3 = biological target: T4, OCT3 (Homo sapiens, UniProt O75751); test: Stereoselective uptake into OCT3-overexpressing HEK293 cells;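 note: intracellular accumulation in HEK293 cells measured by chiral HPLC-MS/MS after a 2 min substrate exposure at 37 °C, uptake normalized to total protein (bicinchoninic acid assay)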
T4 sequence (O75751 1-556): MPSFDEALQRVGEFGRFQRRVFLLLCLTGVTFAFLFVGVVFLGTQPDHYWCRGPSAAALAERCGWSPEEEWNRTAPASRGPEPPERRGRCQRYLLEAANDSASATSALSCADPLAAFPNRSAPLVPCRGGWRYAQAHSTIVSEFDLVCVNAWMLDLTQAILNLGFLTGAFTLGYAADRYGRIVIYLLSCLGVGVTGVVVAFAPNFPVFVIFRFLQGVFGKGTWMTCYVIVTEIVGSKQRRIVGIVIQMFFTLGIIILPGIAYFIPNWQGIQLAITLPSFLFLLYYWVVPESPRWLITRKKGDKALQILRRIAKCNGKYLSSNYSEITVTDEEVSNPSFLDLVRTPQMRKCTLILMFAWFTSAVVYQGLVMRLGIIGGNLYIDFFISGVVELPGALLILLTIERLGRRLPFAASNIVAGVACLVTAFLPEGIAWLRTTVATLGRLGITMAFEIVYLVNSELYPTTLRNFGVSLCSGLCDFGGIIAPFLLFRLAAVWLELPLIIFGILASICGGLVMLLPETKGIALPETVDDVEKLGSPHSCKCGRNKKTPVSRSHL
Procedure: as §1, §2, §9, §4, §7

OCT2 A270S variant = test: in vitro; conditions: human, Stereoselectivity OCT2_A270S, 100 μM racemic substance, two minutes; uptake ratio of enantiomers, given as for (R)
Procedure: as §1, §2, §6, §4, §7, §8

OCT2 [6] = biological target: T5, OCT2 (Homo sapiens, UniProt O15244, S270A); test: Stereoselective uptake into OCT2 (wild-type)-overexpressing HEK293 cells; conditions: OCT2; ratio between enantiomers, given as for (R) or for 1
T5 sequence (O15244 1-555 S270A): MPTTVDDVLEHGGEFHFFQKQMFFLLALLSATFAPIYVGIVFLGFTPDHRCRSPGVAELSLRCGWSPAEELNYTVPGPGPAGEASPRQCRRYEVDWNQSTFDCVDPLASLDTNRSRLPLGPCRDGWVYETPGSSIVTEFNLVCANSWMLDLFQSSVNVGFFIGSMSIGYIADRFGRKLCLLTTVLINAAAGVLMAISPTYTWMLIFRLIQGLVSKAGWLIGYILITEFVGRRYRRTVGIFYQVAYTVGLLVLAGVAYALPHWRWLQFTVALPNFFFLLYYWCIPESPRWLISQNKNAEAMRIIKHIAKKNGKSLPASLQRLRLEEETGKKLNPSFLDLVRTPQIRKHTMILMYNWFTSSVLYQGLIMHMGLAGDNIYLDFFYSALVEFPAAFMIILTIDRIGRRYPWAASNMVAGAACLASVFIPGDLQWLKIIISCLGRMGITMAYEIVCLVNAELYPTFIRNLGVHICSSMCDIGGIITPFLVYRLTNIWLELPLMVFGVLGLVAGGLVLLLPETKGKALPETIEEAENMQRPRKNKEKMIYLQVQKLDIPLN

OCT2 (wild-type) = biological target: T6, OCT2 (wild-type) (Homo sapiens, UniProt O15244); test: as above; conditions: human, Stereoselectivity OCT2_WT, 100 μM racemic substance, two minutes; uptake ratio of enantiomers, given as for (R)
T6 sequence (O15244 1-555 S270A): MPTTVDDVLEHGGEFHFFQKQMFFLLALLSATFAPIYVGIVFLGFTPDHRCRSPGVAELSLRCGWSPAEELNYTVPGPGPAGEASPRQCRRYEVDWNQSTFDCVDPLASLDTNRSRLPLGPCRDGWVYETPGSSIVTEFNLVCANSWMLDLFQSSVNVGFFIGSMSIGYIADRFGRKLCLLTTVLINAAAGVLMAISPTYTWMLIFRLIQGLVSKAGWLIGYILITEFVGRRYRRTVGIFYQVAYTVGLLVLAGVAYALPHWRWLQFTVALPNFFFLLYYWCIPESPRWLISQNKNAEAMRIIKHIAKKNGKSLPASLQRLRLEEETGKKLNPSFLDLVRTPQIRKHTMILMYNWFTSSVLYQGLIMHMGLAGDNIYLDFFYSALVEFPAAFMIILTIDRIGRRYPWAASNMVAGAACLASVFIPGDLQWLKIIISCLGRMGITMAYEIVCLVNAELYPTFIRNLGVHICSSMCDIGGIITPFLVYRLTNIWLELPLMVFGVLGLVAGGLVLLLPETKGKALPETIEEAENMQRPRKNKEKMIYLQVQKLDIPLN

Alpha-1 adrenoreceptor = conditions: cited from earlier work
[7] = substrate: NC[C@@H](O)c1ccc(O)cc1; test: cells, lysate or membranes; conditions: other: HEK293 cells overexpressing human DAT; racemic substrate, two minutes; net uptake minus empty vector control; 37.0 °C;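 note: intracellular accumulation measured by chiral HPLC-MS/MS in stably transfected HEK293 cells, normalized to total protein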
Procedure: as §1, §2, §9, §4, §7

[8] = substrate: NCC(O)c1cccc(O)c1; test: cells, lysate or membranes; conditions: other: HEK293 cells overexpressing human DAT; racemic substrate, two minutes; net uptake minus empty vector control; 37.0 °C;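 for Clint ± SEM: intracellular accumulation measured by chiral HPLC-MS/MS in stably transfected HEK293 cells, normalized to total protein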
[9] = substrate: NC[C@H](O)c1ccc(O)cc1; test: cells, lysate or membranes; conditions: other: HEK293 cells overexpressing human DAT; racemic substrate, two minutes; net uptake minus empty vector control; 37.0 °C;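 note: intracellular accumulation measured by chiral HPLC-MS/MS in stably transfected HEK293 cells, normalized to total protein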
Procedure: as §1, §2, §9, §4, §7

[10] = substrate: CNC[C@@H](O)c1ccc(O)cc1; test: cells, lysate or membranes; conditions: other: HEK293 cells overexpressing human DAT; racemic substrate, two minutes; net uptake minus empty vector control; 37.0 °C
Procedure: as §1, §2, §9, §4, §7

[11] = substrate: [H][C@](O)(CNC)c1ccc(O)cc1; test: cells, lysate or membranes; conditions: other: HEK293 cells overexpressing human DAT; racemic substrate, two minutes; net uptake minus empty vector control; 37.0 °C
Procedure: as §1, §2, §9, §4, §7

Chain of NET (P23975 whole entry): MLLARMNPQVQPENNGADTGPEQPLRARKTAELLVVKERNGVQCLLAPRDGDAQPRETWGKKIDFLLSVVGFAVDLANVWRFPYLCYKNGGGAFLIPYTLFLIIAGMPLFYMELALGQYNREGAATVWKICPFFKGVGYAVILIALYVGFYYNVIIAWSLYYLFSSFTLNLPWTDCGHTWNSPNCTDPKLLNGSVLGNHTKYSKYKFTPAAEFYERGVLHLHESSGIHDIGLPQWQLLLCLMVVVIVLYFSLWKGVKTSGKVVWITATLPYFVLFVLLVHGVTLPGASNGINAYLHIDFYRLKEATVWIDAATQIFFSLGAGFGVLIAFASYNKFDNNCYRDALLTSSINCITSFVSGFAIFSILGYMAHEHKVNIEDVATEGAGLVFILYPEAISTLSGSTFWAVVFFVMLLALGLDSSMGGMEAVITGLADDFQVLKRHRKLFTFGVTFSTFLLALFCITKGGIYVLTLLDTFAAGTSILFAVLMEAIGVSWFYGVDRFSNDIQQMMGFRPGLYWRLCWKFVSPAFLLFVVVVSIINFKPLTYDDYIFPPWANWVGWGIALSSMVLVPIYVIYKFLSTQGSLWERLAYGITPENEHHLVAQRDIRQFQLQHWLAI
T1 sequence (P31645 whole entry): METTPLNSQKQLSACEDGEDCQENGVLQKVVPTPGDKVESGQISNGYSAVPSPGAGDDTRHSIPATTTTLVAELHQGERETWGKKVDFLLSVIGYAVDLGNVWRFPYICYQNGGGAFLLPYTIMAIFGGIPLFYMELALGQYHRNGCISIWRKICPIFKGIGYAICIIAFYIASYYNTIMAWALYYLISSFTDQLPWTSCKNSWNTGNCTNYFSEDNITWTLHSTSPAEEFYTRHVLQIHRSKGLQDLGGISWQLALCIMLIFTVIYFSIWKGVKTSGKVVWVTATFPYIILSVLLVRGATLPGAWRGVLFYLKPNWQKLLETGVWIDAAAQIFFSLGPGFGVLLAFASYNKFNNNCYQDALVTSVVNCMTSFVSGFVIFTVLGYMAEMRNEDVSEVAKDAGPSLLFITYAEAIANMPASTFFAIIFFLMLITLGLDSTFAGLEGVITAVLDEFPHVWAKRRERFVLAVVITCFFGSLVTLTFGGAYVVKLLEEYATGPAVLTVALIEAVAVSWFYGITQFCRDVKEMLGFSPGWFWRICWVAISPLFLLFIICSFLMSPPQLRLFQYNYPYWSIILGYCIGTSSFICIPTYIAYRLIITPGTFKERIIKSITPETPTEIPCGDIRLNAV

## CNC[C@@H](O)c1cccc(O)c1 [(S)-Phenylephrine]
SERT [1]
  Clint ± SEM: 11.6
SERT [2]
  selectivity ratio: 2.82
NET; HEK293 cells overexpressing human NET, racemic substrate, two minutes, net uptake
  Vmax ± SEM: 220 pmol × mg Protein^−1 × min^−1
NET; NET, quotient of vmax over Km
  Clint ± SEM: 52.3 mL × g Protein^−1 × min^−1
NET; NET, ratio between enantiomers, given as for (R) or for 1
  Stereoselectivity Vmax: 1.79 fold
NET; human
  selectivity ratio at 2 min: 1.43
NET; read-out: Km ± SEM, HEK293 cells overexpressing human NET, racemic substrate, two minutes, net uptake minus empty vector control
  Km: 4.16 µM
[3]
  selectivity ratio at 2 min, 100 μM: 1.13
OCT2 [4]; quotient of vmax over Km
  Clint ± SEM: 27.3 mL × g Protein^−1 × min^−1
OCT2 [4]; Stereoselectivity ClInt, given as for (S) or for 2
  selectivity ratio at 2 min: 1.02
OCT2 [4]; Stereoselectivity Km, given as for (R) or for 1 (first-eluting)
  selectivity ratio at 2 min: 1.89
OCT2 [4]; Stereoselectivity Vmax, given as for (R) or for 1
  selectivity ratio at 2 min: 2.04
SERT [5]
  Stereoselectivity Km: 1.89 fold
  Stereoselectivity Vmax: 1.49 fold
  Vmax ± SEM: 529
SERT [5]; read-out: Km ± SEM, HEK293 cells overexpressing human SERT, racemic substrate, two minutes, net uptake minus empty vector control
  Km: 173 µM
OCT1; OCT1, quotient of vmax over Km
  Clint ± SEM: 8.85 mL × g Protein^−1 × min^−1
OCT1; Stereoselectivity ClInt
  selectivity ratio at 2 min: 1.11
OCT1; Stereoselectivity Km, OCT1, ratio between enantiomers, given as for (S) or for 2 (second-eluting)
  selectivity ratio at 2 min: 1.02
OCT1; Stereoselectivity Vmax, OCT1, ratio between enantiomers, given as for (R) or for 1
  selectivity ratio at 2 min: 1.08
DAT; DAT, quotient of vmax over Km
  Clint ± SEM: 11.6 mL × g Protein^−1 × min^−1
DAT; DAT, ratio between enantiomers, given as for (R) or for 1
  Stereoselectivity Vmax: 1.56 fold
DAT; DAT, ratio between enantiomers, given as for (R) or for 1 (first-eluting)
  Stereoselectivity Km: 1.06 fold
DAT; HEK293 cells overexpressing human DAT, racemic substrate, two minutes, net uptake
  Vmax ± SEM: 392 pmol × mg Protein^−1 × min^−1
DAT; human
  selectivity ratio at 2 min: 1.48
DAT; read-out: Km ± SEM, HEK293 cells overexpressing human DAT, racemic substrate, two minutes, net uptake minus empty vector control
  Km: 33.7 µM
OCT3; OCT3, quotient of vmax over Km
  Clint ± SEM: 4.23 mL × g Protein^−1 × min^−1
OCT3; OCT3, ratio between enantiomers, given as for (R) or for 1
  Stereoselectivity Vmax: 3.33 fold
OCT3; OCT3, ratio between enantiomers, given as for (R) or for 1 (first-eluting)
  Stereoselectivity Km: 1.19 fold
OCT3; human
  selectivity ratio at 2 min: 2.79

## NC[C@H](O)c1ccc(O)c(O)c1 [Norepinephrine]
OCT2 A270S variant
  selectivity ratio at 2 min, 100 μM: 2.06
OCT2 [6]
  Stereoselectivity Vmax: approximately two-fold
OCT2 (wild-type)
  selectivity ratio at 2 min, 100 μM: 2.05
Alpha-1 adrenoreceptor
  Enantiomeric Activity Ratio (R/S) in Receptor Binding Alpha-1: 33

## CNCC(O)c1ccc(O)cc1 (centres unmarked) [Synephrine]
OCT2 A270S variant
  selectivity ratio at 2 min, 100 μM: 1
OCT2 (wild-type)
  selectivity ratio at 2 min, 100 μM: 1.17
Alpha-1 adrenoreceptor
  Enantiomeric Activity Ratio (R/S) in Receptor Binding Alpha-1: 75

B1: DAT (Homo sapiens) (protein)
chain: MSKSKCSVGLMSSVVAPAKEPNAVGPKEVELILVKEQNGVQLTSSTLTNPRQSPVEAQDRETWGKKIDFLLSVIGFAVDLANVWRFPYLCYKNGGGAFLVPYLLFMVIAGMPLFYMELALGQFNREGAAGVWKICPILKGVGFTVILISLYVGFFYNVIIAWALHYLFSSFTTELPWIHCNNSWNSPNCSDAHPGDSSGDSSGLNDTFGTTPAAEYFERGVLHLHQSHGIDDLGPPRWQLTACLVLVIVLLYFSLWKGVKTSGKVVWITATMPYVVLTALLLRGVTLPGAIDGIRAYLSVDFYRLCEASVWIDAATQVCFSLGVGFGVLIAFSSYNKFTNNCYRDAIVTTSINSLTSFSSGFVVFSFLGYMAQKHSVPIGDVAKDGPGLIFIIYPEAIATLPLSSAWAVVFFIMLLTLGIDSAMGGMESVITGLIDEFQLLHRHRELFTLFIVLATFLLSLFCVTNGGIYVFTLLDHFAAGTSILFGVLIEAIGVAWFYGVGQFSDDIQQMTGQRPSLYWRLCWKLVSPCFLLFVVVVSIVTFRPPHYGAYIFPDWANALGWVIATSSMAMVPIYAAYKFCSLPGSFREKLAYAIAPEKDRELVDRGEVRQFTLRHWLKV
[7]
  Km: 19.6 µM
  Vmax: 1959 pmol × mg Protein^−1 × min^−1
[8]
  Km: 15.6 µM and 18.6 µM
  Vmax: 2003 pmol × mg Protein^−1 × min^−1 and 3103 pmol × mg Protein^−1 × min^−1
[9]
  Km: 20.5 µM
  Vmax: 2054 pmol × mg Protein^−1 × min^−1
[10]
  Km: 44.7 µM
  Vmax: 463 pmol × mg Protein^−1 × min^−1
[11]
  Km: 36.8 µM
  Vmax: 849 pmol × mg Protein^−1 × min^−1
